US20260234185A1, “ANTI-AGING COMPOSITION COMPRISING PEPTIDE COMPLEX AS ACTIVE INGREDIENT” (priority 2023, published 2026)
Where no end group is shown, it is not given here.

How the values were obtained:
[1] = test system: AMP-activated protein kinase (AMPK); assay: Western blot of AMPK phosphorylation in adipocytes; type: cell-based; conditions: differentiated 3T3-L1 adipocytes; 0.2, 2, 20 μg/mL; 1 hour; Western blot (FIGS. 1a, 1b)
Procedure: An experiment was performed to determine whether the peptide complex prepared in Preparation Example 1 using adipocytes increases the phosphorylation of AMP-activated protein kinase (AMPK), which is a longevity-related protein, and increases the expression levels of sirtuin 1 (SIRT1) and fibroblast growth factor 21 (FGF21) proteins in adipocytes.
When 3T3-L1 preadipocytes reached 80% confluence, they were seeded at 5×10^3 cells/well in a 96-well plate and used for the experiment. Two days after reaching confluence, the medium was replaced with a differentiation-inducing medium to induce the differentiation into adipocytes, and two days after the induction, the cells were cultured for 2 days in a medium containing 10% FBS and 10 μg/mL insulin, and then the medium was replaced with 10% FBS every 2 days until their differentiation into adipocytes. Once the differentiation was complete, the medium was replaced with a serum-free medium and cultured for 4 hours to induce starvation. The peptide complexes were treated at concentrations of 0.2 μg/mL, 2 μg/mL, and 20 μg/mL, incubated for 1 hour, dissolved by adding dissolution buffer thereto, and the proteins obtained by centrifugation at 4° C. and 12,000 rpm for 30 minutes were quantified using a BCA kit. […]

AMPK = assay: Western blot of AMPK phosphorylation in myocytes; type: cell-based, mouse; conditions: differentiated C2C12 myocytes; 0.2, 2, 20 μg/mL; 24 hours; Western blot (FIGS. 6a, 6b)
Procedure: An experiment was performed to determine whether the peptide complex increases the phosphorylation of AMPK and the expression of SIRT1 and FGF21 proteins in myocytes.
C2C12 cells, mouse-derived myoblasts, were cultured in DMEM medium containing 1% P/S and 2% BCS. When the cell confluency reached 70-80%, the cells were seeded in a 6-well culture plate. When the cell confluency in the 6-well culture plate reached 100%, the medium was replaced with differentiation medium (1% P/S, 2% horse serum), and thereafter, the differentiation medium (1% P/S, 2% horse serum) was replaced once every two days. Five days after the first replacement, the peptide complex was treated at concentrations of 0.2 μg/mL, 2 μg/mL, and 20 μg/mL and cultured for 24 hours. The group untreated with the peptide complex was used as the control. After dissolving by adding dissolution buffer thereto, the proteins obtained were centrifuged at 4° C. and 12,000 rpm for 30 minutes, and quantified using a BCA kit. The proteins were subjected to sodium dodecyl sulfate-polyacrylamide gel electrophoresis (SDS-PAGE) and then electrotransferred onto a membrane. The membrane with the proteins attached was blocked by treating it with 5% skim milk, and then the primary antibody was reacted overnight at 4° C. […]

Substance: peptide complex: prepared by mixing equal amounts of the peptide of SEQ ID NO: 1 (LKTRN) and the peptide of SEQ ID NO: 2 (KGSATGWMA) (also: mixture of two peptides)
- phosphorylation of AMPKα [1]: increased
- phosphorylation of AMPK (AMPK): increased
